Data: PubChem BioAssay AID1259407 (Chemical Carcinogenesis Research Information System (CCRIS), 2018)
Activity calls are given as the source filed them. The rule behind the calls is not given here.

Tested on: CCRIS mutagenicity, Ames/micronucleus/aberration tests
Experiment: CCRIS mutagenicity studies

SMILES: ClC(Cl)=C(Cl)Cl
- mutagenic call (End Point: IN VITRO CHROMOSOMAL ABERRATIONS, Test System: CHINESE HAMSTER OVARY CELLS, Metabolic Activation: NONE): inactive; negative
- mutagenic call (End Point: IN VITRO CHROMOSOMAL ABERRATIONS, Test System: CHINESE HAMSTER OVARY CELLS, Metabolic Activation: RAT, LIVER, S-9, AROCLOR 1254): inactive; negative
- mutagenic call (End Point: IN VITRO CHROMOSOMAL ABERRATIONS, Test System: CHL/IU CELLS, Metabolic Activation: NONE): inactive; negative
- mutagenic call (End Point: IN VITRO CHROMOSOMAL ABERRATIONS, Test System: CHO CELLS, Metabolic Activation: NONE): inactive; negative
- mutagenic call (End Point: IN VITRO CHROMOSOMAL ABERRATIONS, Test System: CHO CELLS, Metabolic Activation: RAT, LIVER, S-9, AROCLOR 1254): inactive; negative
- mutagenic call (End Point: IN VITRO MICRONUCLEUS, Test System: CHL/IU CELLS, Metabolic Activation: NONE): inactive; negative
- mutagenic call (Test System: AMES SALMONELLA TYPHIMURIUM, Strain/Indicator: TA98, Metabolic Activation: HAMSTER, LIVER, S-9, AROCLOR 1254, Method: PREINCUBATION): inactive; negative
- mutagenic call (Test System: AMES SALMONELLA TYPHIMURIUM, Strain/Indicator: TA98, Metabolic Activation: NONE, Method: PREINCUBATION): inactive; negative
- mutagenic call (Test System: AMES SALMONELLA TYPHIMURIUM, Strain/Indicator: TA98, Metabolic Activation: NONE, Method: STANDARD PLATE): inactive; negative
- mutagenic call (Test System: AMES SALMONELLA TYPHIMURIUM, Strain/Indicator: TA98, Metabolic Activation: RAT, LIVER, S-9, AROCLOR 1254, Method: PREINCUBATION): inactive; negative
- mutagenic call (Test System: AMES SALMONELLA TYPHIMURIUM, Strain/Indicator: TA98, Metabolic Activation: RAT, LIVER, S-9, AROCLOR, Method: STANDARD PLATE): inactive; negative
- mutagenic call (Test System: AMES SALMONELLA TYPHIMURIUM, Strain/Indicator: TA100, Metabolic Activation: HAMSTER, LIVER, S-9, AROCLOR 1254, Method: PREINCUBATION): inactive; negative
- mutagenic call (Test System: AMES SALMONELLA TYPHIMURIUM, Strain/Indicator: TA100, Metabolic Activation: HAMSTER, LIVER, S-9, SODIUM PHENOBARBITAL, Method: STANDARD PLATE (SEALED PLATE)): inactive; negative
- mutagenic call (Test System: AMES SALMONELLA TYPHIMURIUM, Strain/Indicator: TA100, Metabolic Activation: MOUSE, LIVER, S-9, SODIUM PHENOBARBITAL, Method: STANDARD PLATE (SEALED PLATE)): inactive; negative
- mutagenic call (Test System: AMES SALMONELLA TYPHIMURIUM, Strain/Indicator: TA100, Metabolic Activation: NONE, Method: BAG VAPORIZATION): inactive; negative
- mutagenic call (Test System: AMES SALMONELLA TYPHIMURIUM, Strain/Indicator: TA100, Metabolic Activation: NONE, Method: PREINCUBATION): inactive; negative
- mutagenic call (Test System: AMES SALMONELLA TYPHIMURIUM, Strain/Indicator: TA100, Metabolic Activation: NONE, Method: SPOT): active; positive
- mutagenic call (Test System: AMES SALMONELLA TYPHIMURIUM, Strain/Indicator: TA100, Metabolic Activation: NONE, Method: STANDARD PLATE): inactive; negative
- mutagenic call (Test System: AMES SALMONELLA TYPHIMURIUM, Strain/Indicator: TA100, Metabolic Activation: NONE, Method: STANDARD PLATE (SEALED PLATE)): inactive; negative
- mutagenic call (Test System: AMES SALMONELLA TYPHIMURIUM, Strain/Indicator: TA100, Metabolic Activation: RAT, KIDNEY, MICROSOMES AND RAT, LIVER, GLUTATHIONE AND GLUTATHIONE TRANSFERASE, Method: PREINCUBATION): active; positive
- mutagenic call (Test System: AMES SALMONELLA TYPHIMURIUM, Strain/Indicator: TA100, Metabolic Activation: RAT, LIVER, S-9, AROCLOR 1254, Method: BAG VAPORIZATION): inactive; negative
- mutagenic call (Test System: AMES SALMONELLA TYPHIMURIUM, Strain/Indicator: TA100, Metabolic Activation: RAT, LIVER, S-9, AROCLOR 1254, Method: PREINCUBATION): inactive; negative
- mutagenic call (Test System: AMES SALMONELLA TYPHIMURIUM, Strain/Indicator: TA100, Metabolic Activation: RAT, LIVER, S-9, AROCLOR, Method: STANDARD PLATE): inactive; negative
- mutagenic call (Test System: AMES SALMONELLA TYPHIMURIUM, Strain/Indicator: TA100, Metabolic Activation: RAT, LIVER, S-9, SODIUM PHENOBARBITAL, Method: STANDARD PLATE (SEALED PLATE)): inactive; negative
- mutagenic call (Test System: AMES SALMONELLA TYPHIMURIUM, Strain/Indicator: TA102, Metabolic Activation: MOUSE, LIVER, S-9, SODIUM PHENOBARBITAL, Method: STANDARD PLATE (SEALED PLATE)): inactive; negative
- mutagenic call (Test System: AMES SALMONELLA TYPHIMURIUM, Strain/Indicator: TA102, Metabolic Activation: NONE, Method: STANDARD PLATE (SEALED PLATE)): inactive; negative
- mutagenic call (Test System: AMES SALMONELLA TYPHIMURIUM, Strain/Indicator: TA102, Metabolic Activation: S-9, Method: STANDARD PLATE): inactive; negative
- mutagenic call (Test System: AMES SALMONELLA TYPHIMURIUM, Strain/Indicator: TA104, Metabolic Activation: MOUSE, LIVER, S-9, SODIUM PHENOBARBITAL, Method: STANDARD PLATE (SEALED PLATE)): inactive; negative
- mutagenic call (Test System: AMES SALMONELLA TYPHIMURIUM, Strain/Indicator: TA104, Metabolic Activation: NONE, Method: STANDARD PLATE (SEALED PLATE)): inactive; negative
- mutagenic call (Test System: AMES SALMONELLA TYPHIMURIUM, Strain/Indicator: TA1535, Metabolic Activation: HAMSTER, LIVER, S-9, AROCLOR 1254, Method: PREINCUBATION): inactive; negative
- mutagenic call (Test System: AMES SALMONELLA TYPHIMURIUM, Strain/Indicator: TA1535, Metabolic Activation: MOUSE, LIVER, S-9, SODIUM PHENOBARBITAL, Method: STANDARD PLATE (SEALED PLATE)): inactive; negative
- mutagenic call (Test System: AMES SALMONELLA TYPHIMURIUM, Strain/Indicator: TA1535, Metabolic Activation: NONE, Method: PREINCUBATION): inactive; negative
- mutagenic call (Test System: AMES SALMONELLA TYPHIMURIUM, Strain/Indicator: TA1535, Metabolic Activation: NONE, Method: STANDARD PLATE (SEALED PLATE)): inactive; negative
- mutagenic call (Test System: AMES SALMONELLA TYPHIMURIUM, Strain/Indicator: TA1535, Metabolic Activation: RAT, LIVER, S-9, AROCLOR 1254, Method: PREINCUBATION): inactive; negative
- mutagenic call (Test System: AMES SALMONELLA TYPHIMURIUM, Strain/Indicator: TA1537, Metabolic Activation: HAMSTER, LIVER, S-9, AROCLOR 1254, Method: PREINCUBATION): inactive; negative
- mutagenic call (Test System: AMES SALMONELLA TYPHIMURIUM, Strain/Indicator: TA1537, Metabolic Activation: NONE, Method: PREINCUBATION): inactive; negative
- mutagenic call (Test System: AMES SALMONELLA TYPHIMURIUM, Strain/Indicator: TA1537, Metabolic Activation: RAT, LIVER, S-9, AROCLOR 1254, Method: PREINCUBATION): inactive; negative
- mutagenic call (Test System: AMES SALMONELLA TYPHIMURIUM, Strain/Indicator: TA2638, Metabolic Activation: S-9, Method: STANDARD PLATE): inactive; negative
- mutagenic call (Test System: AMES SALMONELLA TYPHIMURIUM, Strain/Indicator: UTH8413, Metabolic Activation: NONE, Method: STANDARD PLATE): inactive; negative
- mutagenic call (Test System: AMES SALMONELLA TYPHIMURIUM, Strain/Indicator: UTH8413, Metabolic Activation: RAT, LIVER, S-9, AROCLOR, Method: STANDARD PLATE): inactive; negative
- mutagenic call (Test System: AMES SALMONELLA TYPHIMURIUM, Strain/Indicator: UTH8414, Metabolic Activation: NONE, Method: STANDARD PLATE): inactive; negative
- mutagenic call (Test System: AMES SALMONELLA TYPHIMURIUM, Strain/Indicator: UTH8414, Metabolic Activation: RAT, LIVER, S-9, AROCLOR, Method: STANDARD PLATE): inactive; negative
- mutagenic call (Test System: Ames Salmonella typhimurium, Strain/Indicator: TA98, Metabolic Activation: None, Method: Gas exposure method): inactive; negative (two experiments)
- mutagenic call (Test System: Ames Salmonella typhimurium, Strain/Indicator: TA98, Metabolic Activation: Rat, Liver, S9, Sodium phenobarbital and 5,6-benzoflavone (10%), Method: Gas exposure method): inactive; negative (two experiments)
- mutagenic call (Test System: Ames Salmonella typhimurium, Strain/Indicator: TA100, Metabolic Activation: None, Method: Gas exposure method): inactive; negative (two experiments)
- mutagenic call (Test System: Ames Salmonella typhimurium, Strain/Indicator: TA100, Metabolic Activation: Rat, Liver, S9, Sodium phenobarbital and 5,6-benzoflavone (10%), Method: Gas exposure method): inactive; negative (two experiments)
- mutagenic call (Test System: Ames Salmonella typhimurium, Strain/Indicator: TA1535, Metabolic Activation: None, Method: Gas exposure method): active; positive (two experiments)
- mutagenic call (Test System: Ames Salmonella typhimurium, Strain/Indicator: TA1535, Metabolic Activation: Rat, Liver, S9, Sodium phenobarbital and 5,6-benzoflavone (10%), Method: Gas exposure method): active; positive (two experiments)
- mutagenic call (Test System: Ames Salmonella typhimurium, Strain/Indicator: TA1537, Metabolic Activation: None, Method: Gas exposure method): inactive; negative (two experiments)
- mutagenic call (Test System: Ames Salmonella typhimurium, Strain/Indicator: TA1537, Metabolic Activation: Rat, Liver, S9, Sodium phenobarbital and 5,6-benzoflavone (10%), Method: Gas exposure method): inactive; negative (two experiments)
- mutagenic call (Test System: CHO/HGPRT, Strain/Indicator: CHO/GIEMSA, Metabolic Activation: NONE, Method: STANDARD PLATE): inactive; negative
- mutagenic call (Test System: CHO/HGPRT, Strain/Indicator: CHO/GIEMSA, Metabolic Activation: RAT, LIVER, S-9, AROCLOR 1254, Method: STANDARD PLATE): inactive; negative
- mutagenic call (Test System: E. COLI, Strain/Indicator: WP2 (PKM101), Metabolic Activation: S-9, Method: STANDARD PLATE): inactive; negative
- mutagenic call (Test System: E. COLI, Strain/Indicator: WP2 UVRA (PKM101), Metabolic Activation: S-9, Method: STANDARD PLATE): inactive; negative
- mutagenic call (Test System: E. coli, Strain/Indicator: WP2uvrA/pKM101, Metabolic Activation: None, Method: Gas exposure method): inactive; negative (two experiments)
- mutagenic call (Test System: E. coli, Strain/Indicator: WP2uvrA/pKM101, Metabolic Activation: Rat, Liver, S9, Sodium phenobarbital and 5,6-benzoflavone (10%), Method: Gas exposure method): inactive; negative (two experiments)
- mutagenic call (Test System: MOUSE LYMPHOMA, Strain/Indicator: L5178Y (TK+/TK-), Metabolic Activation: NONE, Method: SUSPENSION/PLATE): inactive; negative
- mutagenic call (Test System: MOUSE LYMPHOMA, Strain/Indicator: L5178Y (TK+/TK-), Metabolic Activation: RAT, LIVER, S-9, AROCLOR 1254, Method: SUSPENSION/PLATE): inactive; negative
